Results published in the supplement of paper PMC10307832.

What was measured:
Assay in all cases: relative viability (nuclei count vs DMSO), 5 days (fraction); higher = more cells survive
[1] = compound: Cn1cc(-c2cnn3c(N)c(Br)c([C@@H]4CCCNC4)nc23)cn1 + CC(=O)c1c(C)c2cnc(Nc3ccc(N4CCNCC4)cn3)nc2n(C2CCCC2)c1=O [Palbociclib] (partner 0.5 µM)
Summary of the method: (§1)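 Values are medians from duplicate plates. Each reflects relative viability, defined as the nuclei count of treated wells over that of vehicle wells. Lung cancer cell lines in 1536-well plates were pin-tool dosed one day after seeding with one drug alone or with a fixed anchor-drug dose plus five library-drug doses (not always all listed) in √10 steps, then fixed, stained and imaged at 4× after 5 days.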

[2] = compound: Cn1cc(-c2cnn3c(N)c(Br)c([C@@H]4CCCNC4)nc23)cn1 + CC(C)C[C@H](NC(=O)[C@H](Cc1ccccc1)NC(=O)c1cnccn1)B(O)O [Bortezomib] (partner 0.002 µM)
Summary of the method: as §1

[3] = compound: Cn1cc(-c2cnn3c(N)c(Br)c([C@@H]4CCCNC4)nc23)cn1 + COc1cc2c(Oc3ccc(NC(=O)C4(C(=O)Nc5ccc(F)cc5)CC4)cc3F)ccnc2cc1OCCCN1CCOCC1 [Foretinib] (partner 0.25 µM)
Summary of the method: as §1

[4] = compound: Cn1cc(-c2cnn3c(N)c(Br)c([C@@H]4CCCNC4)nc23)cn1 + CS(=O)(=O)N1CCN(Cc2cc3nc(-c4cccc5[nH]ncc45)nc(N4CCOCC4)c3s2)CC1 [Pictilisib] (partner 1 µM)
Summary of the method: as §1

Cell Line	relative viability ([1]; first compound 0.05 µM)	relative viability ([1]; first compound 0.1581 µM)	relative viability ([1]; first compound 0.5 µM)	relative viability ([1]; first compound 1.581 µM)	relative viability ([1]; first compound 5 µM)	relative viability ([2]; first compound 0.05 µM)	relative viability ([2]; first compound 0.1581 µM)	relative viability ([2]; first compound 0.5 µM)	relative viability ([2]; first compound 1.581 µM)	relative viability ([2]; first compound 5 µM)	relative viability ([3]; first compound 0.05 µM)	relative viability ([3]; first compound 0.1581 µM)	relative viability ([3]; first compound 0.5 µM)	relative viability ([3]; first compound 1.581 µM)	relative viability ([3]; first compound 5 µM)	relative viability ([4]; first compound 0.05 µM)	relative viability ([4]; first compound 0.1581 µM)	relative viability ([4]; first compound 0.5 µM)	relative viability ([4]; first compound 1.581 µM)	relative viability ([4]; first compound 5 µM)
201T	0.362	0.373	0.34	0.322	0.363	1.04	1.09	1.1	1.07	1.17	0.999	0.952	1.26	0.554	0.265	0.644	0.621	0.704	0.613	0.573
A-427	0.51	0.503	0.508	0.504	0.411	1	0.937	1.2	0.961	0.743	1.05	1.11	1.01	1.09	0.712	0.675	0.661	0.819	0.643	0.509
ABC-1		1.06	0.872	0.452	0.718	0.364	0.284	0.298	0.331	0.287	0.951	1.07	1.02	0.872	0.4	0.763	0.666	0.721	0.54	0.341
BEN	0.501	0.489	0.497	0.459	0.53	0.688	0.824	0.729	0.774	0.553	0.689	0.535	0.563	0.763	0.514	0.628	0.575	0.498	0.496	0.417
CAL-12T	0.505	0.569	0.476	0.189	0.202	0.728	0.899	0.775	0.718	0.315	1.17	1.08	0.965	0.789	0.228	0.416	0.45	0.525	0.389	0.244
COR-L23	0.345	0.346	0.356	0.231	0.183	1.08	1.23	0.913	0.646	0.46	1.07	1.13	1.08	0.907	0.439	0.952	1.16	0.597	0.447	0.257
COR-L 105	0.411	0.367	0.385	0.41	0.386	0.757	0.721	0.768	0.613	0.611	0.83	0.995	0.994	0.782	1.46	0.459	0.4	0.376	0.376	0.385
Calu-6						1.17	0.733	0.685	0.363	0.188	0.879	0.876	0.758	0.319	0.134	0.935	0.605	0.419	0.212	0.194
